System: collagen I
Assay: Synthesis of collagen I on human dermal fibroblast (immunolabeling)
Type: cell-based
Settings: 10^−6%, positive control
Description: Normal human fibroblasts (NHF) are cultivated in MW24 plates for 24 hours. The cells are contacted or not with the Lipo-Phosphomalate of the invention at various concentrations for 7 days. The synthesis of collagen I produced by the cells is then quantified by immunolabeling fixed on the layers using a specific antibody. Quantification by image analysis is then performed on the photos. TGF-β1 is used as positive control.
An analysis of variance was performed on the data (cases treated compared with untreated cases). In the case of identity of variances, a Student't test was then performed on the means.

Question: For “TGF- β1: positive control for laminin and collagen I synthesis”, which “collagen I % Variation/control” value is on record?
Answer: +1374%;

Question: What about the “collagen I AFU mean” value of the same substance?
Answer: 55 +/− 17.6 AFU

Source: patent US8603498B2, “Lipo-phosphated or lipo-sulphated compound, compositions comprising it and topical uses thereof” (Sederma, S.A.S., priority 2010, dated 2013)
